Assay results taken from patent publication US8748408B2, “Methods of treatment of mitochondrial disorders” (The Regents of the University of California, priority 1999, dated 2014).

What was measured:
Type in all cases: in vivo, human
[1] = Tegretol level in patient (Example 4); conditions: both before and after starting triacetyluridine, found subtherapeutic
[2] = test system: child with MARIAHS syndrome
From the text: CMZ is a child with mitochondrial ataxia, recurrent infections, aphasia, hypouricemia/hypomyelination, and seizures ([…] syndrome), cared for […]. Symptoms indicate a primary deficiency in the enzyme dihydroorotate dehydrogenase, the rate-limiting step in de novo pyrimidine synthesis, which could lead to a functional dependence on exogenous uridine. […] treatment began with uridine. […] the treating agent was switched to triacetyluridine because it is a more easily absorbed form of uridine.

[3] = test system: child with refractory epilepsy and multiple mitochondrial DNA deletion syndrome; test: Administration of triacetyluridine to a subject having multiple mitochondrial DNA deletion syndrome (Example 4); conditions: patient
From the text: patient one is a child with refractory epilepsy. As a 5th grader they were able to play little league baseball. […] This disorder produces multiple deleted copies of mitochondrial DNA and can lead to a number of symptoms. SK began deteriorating. They had 2 ICU admissions for crescendo epilepsy, and had 7 changes in their anticonvulsant regimen in the succeeding 4 months. They were having 8-10 grand-mal seizures every night, leaving them postictal for much of the morning. They also developed upper lip automaticity. The patient was initially administered 0.05 g/kg/day of triacetyluridine for one week, followed by 0.16 g/kg/day for 1 week, and then 0.24 g/kg/day.

[4] = test system: child with Leigh syndrome, lactic acidemia, and renal tubular acidosis; test: Administration of triacetyluridine to a subject having Leigh syndrome (Example 5)
From the text: patient two was a child with Leigh syndrome, lactic acidemia, and renal tubular acidosis who suffered a hypertensive crisis and acute edema as they came out of general anesthesia for replacement of an elective percutaneous gastrostomy tube (PEG). […] They developed pneumonia as a complication of PEG and developed new Leigh syndrome lesions in the spinal cord, midbrain, and thalamus. They drifted into a coma 3 days after PEG placement. The person received emergency treatment with triacetyluridine.

[5] = test system: patients with mitochondrial renal tubular acidosis (RTA); test: Treatment of patients with mitochondrial renal tubular acidosis with triacetyluridine (Example 1)
From the text: Four patients with mitochondrial renal tubular acidosis (RTA) were studied. Mitochondrial RTAs often defy simple classification as proximal (type II) or distal (type I) tubulopathies, as these patients are often mosaics and express features of both phenotypes leading to hyperchloremic (non-anion gap) metabolic acidosis.
Patient #1 was a person with Leigh syndrome, lactic acidemia, and complex I deficiency who required 200 mEq/day of NaHCO3 to compensate for renal losses of alkali, and maintain serum bicarbonate levels above 20 mEq/l, 1+ proteinuria, and significant aminoaciduria with hydroxyprolinuria.
Patient #2 was a person with Leigh syndrome, and complex IV (COX) deficiency, who also required 200 mEq/day of NaHCO3.
Patient #3 was a person with Leigh syndrome, lactic acidemia, 1+ proteinuria, and pyruvate dehydrogenase (PDH) deficiency, who required up to 210 mEq/day of NaHCO3.
Patient #4 was a person with 3-hydroxyisobutyric aciduria, lactic acidemia, and encephalomyopathy, who required 468 mEq/day of NaHCO3.
Blood and urine electrolytes, creatinine, pH, urinalysis, and venous blood gases were studied before and after treatment. Quantitative urine amino acids and organic acids were also obtained. Pre-enrollment doses of oral sodium bicarbonate were continued for the first 3 days of triacetyluridine treatment, then reduced weekly as tolerated to maintain serum bicarbonate above 20 mEq/1.
Patients received triacetyluridine 2 g/m^2 PO TID.

[6] = test system: adult with familial history of mitochondrial disease
From the text: KL is an adult who first came to the investigator's attention after the diagnosis of their son with mitochondrial disease leading to stroke-like episodes, ataxia, and encephalopathy. Before administration of triacetyluridine, KL suffered with recurrent pyelonephritis, infection-association neutropenia, […] migraines, grand-mal seizures, neurogenic bowel and bladder requiring QID catheterization, biliary […], dysphagia and pc cough, peripheral and autonomic polyneuropathy, painful paresthesias, cardiac conduction disturbances with SVT and tachy-brady syndrome, severe orthostatic hypotension, orthopnea, and poor functional capacity with inability to climb a flight of stairs without stopping to rest, and declining cognitive performance with episodes of clouded sensorium and poor memory that would last hours to days. KL started triacetyluridine at a dose of 0.05 g/kg/d.

[7] = Patient #1, triacetyluridine 2 g/m^2 PO TID
[8] = patient three, started at 0.05 g/kg/d

Structure (SMILES): NC(=O)N1c2ccccc2C=Cc2ccccc21 [tegretol]
- tegretol level [1]: 4 µg/mL

Structure (SMILES): O=c1ccn([C@@H]2O[C@H](CO)[C@@H](O)[C@H]2O)c(=O)[nH]1 [uridine, reference compound]
- follow-up brain MRI, white matter disease ([2]; patient four, after 20 months on uridine): no progression in their white matter disease

Structure (SMILES): CC(=O)OC[C@H]1O[C@@H](n2ccc(=O)[nH]c2=O)[C@H](OC(C)=O)[C@@H]1OC(C)=O [triacetyluridine, 2′, 3′, 5′-tri-O-acetyl-1-β-D-uridine]
- nocturnal seizure activity ([3]; after increase to 0.24 g/kg/d with 0.5 g calcium pyruvate TID added, transient escalation, then after 3 days): decreased to zero
- seizures and involuntary lip movements ([3]; first three days, 0.05 g/kg/day): stopped completely
- functional outcome ([3]; for several weeks): able to return to school and play little league baseball again
- aminoaciduria ([4]; patient two): improved
- need for supplemental bicarbonate ([4]; patient two (before: 25 mEg/kg/day)): did not require any further supplemental bicarbonate
- time to complete resolution of renal tubular acidosis ([4]; patient two, emergency treatment with triacetyluridine): ≤ 12 h
- clinical outcome ([4]; patient two, in coma before treatment): never awoke from their coma, and died after a 4 week terminal illness
- time until plasma amino acids returned to normal ranges ([4]; patient two, while receiving continuous parenteral nutrition): ≤ 2 h
- time to complete correction of RTA ([5]; Patient #1 (Leigh syndrome, complex I deficiency), triacetyluridine 2 g/m^2 PO TID): ≤ 24 h
- serum bicarbonate maintained without any further oral bicarbonate [5, 7]: more than 20 mEq/l
- time to complete resolution of hydroxyprolinuria [5, 7]: ≤ 2 weeks
- urinary bicarbonate losses ([5]; Patient #2 (initially 99 mEq/l), after 36 hours on treatment, 2 g/m^2 PO TID): < 5 mEq/l
- share of pre-enrollment dose of bicarbonate needed to maintain normal serum bicarbonate ([5]; Patient #2, after 3 weeks of treatment, 2 g/m^2 PO TID): 25%
- urinary bicarbonate losses ([5]; Patient #3 (59 mEq/l prior to therapy), after 36 hours of treatment, 2 g/m^2 PO TID): < 5 mEq/l
- share of previous dose of bicarbonate required ([5]; Patient #3, after 3 weeks of treatment, 2 g/m^2 PO TID): 10%
- reduction in oral bicarbonate requirement ([5]; Patient #4, following 1 week of treatment, 2 g/m^2 PO TID): 35%
- patients in whom renal tubular acidosis was corrected or dramatically improved ([5]; patients with mitochondrial disease, 2 g/m^2 PO TID): 4 out of 4
- overall condition and symptomotology (conclusion) ([2]; MARIAHS syndrome patient): dramatic improvement in the patient's condition, and a marked reduction in symptomotology
- toxicity ([2]; human, in vivo): no biochemical, hematologic, or clinical toxicity
- truncal ataxia ([2]; patient four, uridine, then triacetyluridine): Mild truncal ataxia persists
- language and gait ([2]; patient four, within 2 months of a dose increase to 0.2 g/kg/day): rapid increase in expressive language acquisition and a narrowing of their previous broad-based, ataxic gait
- cystic breast disease ([6]; human, in vivo): flared slightly
- menstrual cycle ([6]; human, in vivo): returned to normal
- menstrual cycles ([6]; human, in vivo): shortened from every 4 weeks to every 2 weeks
- I&O catheterization required ([6]; patient three (before: QID catheterization), started at 0.05 g/kg/d): 1-2 times a week
- functional capacity ([6]; patient three, after 6 weeks of triacetyluridine): able to walk a full mile
- pain of biliary dyssynergia [6, 8]: gone
- painful paresthesias [6, 8]: gone, although some numbness persists
- seizures and migraine since starting treatment [6, 8]: has not had a seizure or migraine
- sensorium [6, 8]: Her sensorium has cleared
- tachy-brady syndrome [6, 8]: persists
